Source: article PMC2939913 (Journal of medicinal chemistry, 2010)
pIC50: −log10 of the molar value. Several values for one entry are separate records, joined by “and”; a condition that tells them apart may be missing. Equal values may be shown once.

What was measured:
P. falciparum D6 (CQS) = test: Inhibition of P. falciparum growth; type: cell-based; settings: Plasmodium falciparum, D6, 72 h, read-out: IC50 (nM) for P. falciparum D6
P. falciparum Dd2 (CQR) = test: Inhibition of P. falciparum growth; type: cell-based; settings: Plasmodium falciparum, DD2, 72 h, read-out: IC50 (nM) for P. falciparum Dd2
[1] = tested on: CQS D6-infected RBCs (P. falciparum); test: Accumulation experiment in parasitized red blood cells, D6; type: cell-based; settings: for Uptake: by 6 × 10^7 PRBCs after 1 hour of incubation, initial medium ∼ 5 µM, ±5%
[2] = tested on: CQR Dd2-infected RBCs (P. falciparum); test: Accumulation experiment in parasitized red blood cells, Dd2; type: cell-based; settings: for Uptake: by 6 × 10^7 PRBCs after 1 hour of incubation, initial medium ∼ 5 µM, ±5%
[3] = General cytotoxicity, mitogen-stimulated murine spleenic lymphocytes; type: cell-based; settings: mouse, mitogen-stimulated murine splenic lymphocytes
β-hematin = β-hematin inhibition; type: biochemical; settings: for pIC50: read-out: β-hematin inhibition, 40 µM heme, acetate pH 4.8, Tween20, 24 hours at 37°C
[4] = tested on: hemozoin production in D6 P. falciparum; test: Hemozoin inhibition in cell culture; type: cell-based; settings: 24 hours
[5] = tested on: hemozoin production in Dd2 P. falciparum; test: Hemozoin inhibition in cell culture; type: cell-based
P. berghei = test: Mouse efficacy against P. berghei; settings: for Mouse survival (days): 1 × 30 mg/kg
[6] = Signs of toxicity when administered to mice; type: in vivo; settings: administered to mice in the P. berghei experiments
[7] = Heme-drug binding by optical titration; settings: apparent; 2:1 heme to drug stoichiometry; 5 µM heme, phosphate buffer pH 5.7
[8] = [concentration in DV / concentration in medium]

With CCN(CC)CCCC(C)Nc1ccnc2cc(Cl)ccc12 (stereo not shown) [CQ, chloroquine, reference compound] the IC50 (P. falciparum D6 (CQS)) was 6.9 nM, the IC50 (P. falciparum Dd2 (CQR)) was 102 nM and the “Uptake” value [1] was 7e-09 mol. For the same compound, the “Uptake” value [2] was 5e-09 mol.

For CN(CCCNc1ccnc2cc(Cl)ccc12)CCCN1c2ccccc2CCc2ccccc21 [Compound 1], the pIC50 [3] was 6.15, the Accumulation ratio [1, 8] was 32,000 and the “Uptake” value [1] was 1.6e-08 mol. For the same compound, the “increase of DV concentration over initial medium concentration” value ([1]; initial medium concentration ∼ 5 µM) was 13,000 fold, the Accumulation ratio [2, 8] was 38,000 and the “Uptake” value [2] was 1.8e-08 mol. The pIC50 (β-hematin) was 5.05, the “hemozoin formation by microscopy” value ([4]; 100 nM drug) was “some hemozoin present” and the “hemozoin formation by microscopy” value ([5]; 100 nM drug, 24 hours (not shown)) was “also the case”. The “Mouse survival (days)” value (P. berghei; oral) was “Mice euthanized day 3”.

With Clc1ccc2c(NCCN3CCN(C(c4ccccc4)c4ccccc4)CC3)ccnc2c1 [Compound 4, N-(2-(4-Benzhydrylpiperazin-1-yl)ethyl)-7-chloroquinolin-4-amine] the pIC50 [3] was 5.72, the pIC50 (β-hematin) was 5.60 and the “Mouse survival (days)” value (P. berghei; subcutaneous) was “Mice euthanized day 3”. For the same compound, the “increase in survival days compared to control animals” value (P. berghei; 4 × 30 mg/kg, oral) was ~10 days.

With Clc1ccc2c(NCCCN3CCN(C(c4ccccc4)c4ccccc4)CC3)ccnc2c1 [Compound 5, N-(3-(4-Benzhydrylpiperazin-1-yl)propyl)-7-chloroquinolin-4-amine] the pIC50 [3] was 5.96 and the pIC50 (β-hematin) was 5.46.

For Clc1ccc2c(NCCCN3CCCN(C(c4ccccc4)c4ccccc4)CC3)ccnc2c1 [Compound 6, N-(3-(4-Benzhydryl-1,4-diazepan-1-yl)propyl)-7-chloroquinolin-4-amine], the pIC50 [3] was 6.15.

Clc1ccc(C(c2ccccc2)N2CCN(CCNc3ccnc4cc(Cl)ccc34)CC2)cc1 (stereo not shown) [Compound 7, 7-Chloro-N-(2-(4-((4-chlorophenyl)(phenyl)methyl)piperazin-1-yl)ethyl)quinolin-4-amine] gave a pIC50 [3] of 5.85.

In the case of Clc1ccc(C(c2ccccc2)N2CCN(CCCNc3ccnc4cc(Cl)ccc34)CC2)cc1 (stereo not shown) [Compound 8, 7-Chloro-N-(3-(4-((4-chlorophenyl)(phenyl)methyl)piperazin-1-yl)propyl)quinolin-4-amine], the pIC50 [3] was 6.10.

Clc1ccc(C(c2ccccc2)N2CCCN(CCCNc3ccnc4cc(Cl)ccc34)CC2)cc1 (stereo not shown) [Compound 9, 7-Chloro-N-(3-(4-((4-chlorophenyl)(phenyl)methyl)-1,4-diazepan-1-yl)propyl)quinolin-4-amine] gave a pIC50 [3] of 6.05.

For Fc1ccc(C(c2ccc(F)cc2)N2CCN(CCCNc3ccnc4cc(Cl)ccc34)CC2)cc1 [Compound 10, N-(3-(4-(Bis(4-fluorophenyl)methyl)piperazin-1-yl)propyl)-7-chloroquinolin-4-amine], the pIC50 [3] was 5.39.

Clc1ccc2c(NCCN3CCCN(C4c5ccccc5-c5ccccc54)CC3)ccnc2c1 [Compound 11, N-(2-(4-(9H-Fluoren-9-yl)-1,4-diazepan-1-yl)ethyl)-7-chloroquinolin-4-amine] showed a pIC50 [3] of 5.60.

Clc1ccc2c(NCCCN3CCCN(C4c5ccccc5-c5ccccc54)CC3)ccnc2c1 [Compound 12, N-(3-(4-(9H-Fluoren-9-yl)-1,4-diazepan-1-yl)propyl)-7-chloroquinolin-4-amine] showed a pIC50 [3] of 5.60.

In the case of CN(CCCN1c2ccccc2CCc2ccccc21)CCNc1ccnc2cc(Cl)ccc12 [Compound 13, N^1-(7-chloroquinolin-4-yl)-N^2-(3-(10,11-dihydro-5H-dibenzo[b,f]azepin-5-yl)propyl)-N^2-methylethane-1,2-diamine], the pIC50 [3] was 5.85 and the pIC50 (β-hematin) was 5.00.

With Clc1ccc2c(NCCCN3CCN(C(c4ccccc4)(c4ccccc4)c4ccccc4)CC3)ccnc2c1 [Compound 15, 7-Chloro-N-(3-(4-tritylpiperazin-1-yl)propyl)quinolin-4-amine] the “β-hematin inhibition (µM)” value (β-hematin; IC50, 40 µM heme, acetate pH 4.8, Tween20, 24 hours at 37°C) was “insoluble”, the “Mouse survival (days)” value (P. berghei; subcutaneous) was “Mice euthanized day 3” and the mice cured (P. berghei; 4 × 30 mg/kg, oral, parasite-free on day 30 post-infection) was 1/3.

For Clc1ccc2c(NCCCN3CCN(C4C5CC6CC(C5)CC4C6)CC3)ccnc2c1 (stereo not shown) [Compound 17, N-(3-(4-(Adamant-2-yl)piperazin-1-yl)propyl)-7-chloroquinolin-4-amine], the pIC50 (β-hematin) was 4.85.

In the case of Clc1ccc2c(NCCN3CCC(NC(c4ccccn4)c4ccccn4)CC3)ccnc2c1 [Compound 21, 7-Chloro-N-(2-(4-(dipyridin-2-ylmethylamino)piperidin-1-yl)ethyl)quinolin-4-amine], the pIC50 (β-hematin) was ~5.70 and 5.70 and the mice cured (P. berghei; second trial, 4 × 44 mg/kg, oral (equimolar to 30 mg/kg CQ)) was 3 out of 3 and 3/3.

In the case of Clc1ccc2c(NCCCN3CCC(NC(c4ccccn4)c4ccccn4)CC3)ccnc2c1 [Compound 22, 7-Chloro-N-(3-(4-(dipyridin-2-ylmethylamino)piperidin-1-yl)propyl)quinolin-4-amine], the IC50 (P. falciparum Dd2 (CQR)) was 1.6 nM, the pIC50 (β-hematin) was 5.80 and the “hemozoin formation by microscopy” value ([4]; 10 nM drug) was “appeared to preclude hemozoin formation”. The “hemozoin formation by microscopy” value ([5]; 10 nM drug, 24 hours) was “appeared to preclude hemozoin formation”, the “signs of toxicity in mice” value [6] was “no obvious signs of toxicity” and the mice cured (P. berghei; 4 × 30 mg/kg, oral, parasite-free on day 30 post-infection, 30 mg/kg) was “two of the three and 2/3”. For the same compound, the mice cured (P. berghei; second trial, 4 × 46 mg/kg, oral (equimolar to 30 mg/kg CQ)) was 9 out of 10 and 9/10.

With OCCN1CCN(C(c2ccccc2)c2ccccc2)CC1 [Compound 26, 2-(4-Benzhydrylpiperazin-1-yl)ethanol] the “Kd [µM (app)]” value [7] was “no activity”.
